Test results from patent US20110118298A1, “COMPOSITIONS, KITS, AND METHODS FOR IDENTIFICATION, ASSESSMENT, PREVENTION, AND THERAPY OF CANCER” (INFINITY PHARMACEUTICALS, INC., priority 2009, published 2011).
“Also recorded” adds a separate entry of the source. Counter-ions that a name gives are not always drawn. Marks after values point to notes of the source that are not given here.

How the values were obtained:
293FT^ALK tumors = experiment: Xenograft of EML4-ALK expressing 293FT cells; conditions: 100 mg/kg IPI-504 twice weekly for 2 weeks
Method: Results are presented as means and SEM (n=8).
Tumors were measured once per week with digital calipers and tumor volume was determined using the formula: (length×width)/2. […] Tumor volumes were assessed as described above.

[1] = system: non-small cell lung cancer (NSCLC); experiment: Phase II study of IPI-504 monotherapy in advanced NSCLC after EGFR TKI therapy: response and PFS; assay type: in vivo, human
Text: Patients with advanced NSCLC, prior treatment with EGFR TKIs, and tumor tissue available for molecular genotyping were enrolled in this prospective, non-randomized, multicenter, phase II study of IPI-504 monotherapy. The primary outcome was objective response rate. Secondary aims included safety, progression-free survival (PFS), and analysis of activity by molecular subtypes.
Each genotype-defined arm of the trial (mutant EGFR cohort or wild-type EGFR cohort) functioned as a Simon two-stage study with planned interim evaluation after 10 patients and expanded enrollment of an additional 19 patients (a total of 29 patients) if there was at least one patient with a complete response (CR), partial response (PR) or stable disease (SD) lasting 3 months. As pre-defined EGFR genotype was not a requirement at study entry, the trial remained open until both cohorts fully enrolled, which led to over-enrollment of the wild-type arm. Secondary aims included describing the safety and progression-free survival (PFS) of the regimen, and examining molecular markers associated with response.
Patients were recruited between December 2007 and May 2009 from ten US cancer centers. To be eligible, patients had to have stage IIIB (with pleural effusion), or stage 1V NSCLC with progression on EGFR TKI therapy at some point in their history; adequate baseline renal, hepatic, and bone marrow function; Eastern Cooperative Oncology Group performance status (PS) of 0-2; measurable disease by RECIST 1.0; no active or untreated central nervous system (brain) metastases; no significant cardiac conduction abnormalities; no ongoing keratoconjunctivitis; and either previously defined EGFR genotype or sufficient tumor tissue to undergo genotype assessment, for example, EGFR mutation analysis (EGFR status not required for study entry) (Therasse, P. et al. (2000) J Natl Cancer Inst 92, 205-216; Oken, M. M. et al. (1982) Am J Clin Oncol. 5:649-655). Patients had experienced prior EGFR TKI therapy and there was no limit on prior therapies. All patients signed a written informed consent and the study was monitored by all local institutional review boards. Funding for the trial was provided by Infinity Pharmaceuticals, Inc.
Treatment consisted of a 30-minute infusion of intravenous IPI-504 on days 1, 4, 8 and 11 of a 21-day cycle. Therapy continued until progressive disease (PD), intolerable side effects, or elective withdrawal. A total of 76 patients were enrolled. The starting dose was 400 mg/m^2 for 75 patients. In April 2009, the dose for patients who were on study (19 patients) was lowered to 225 mg/m^2, due to hepatotoxicities observed at the 400 mg/m^2 dose in a separate trial of IPI-504 in patients with gastrointestinal stromal tumors (GIST) (Demetri G. D. et al. Final results from a phase III study of IPI-504 (retaspimycin hydrochloride) versus placebo in patients with gastrointestinal stromal tumors (GIST) following failure of kinase inhibitor therapies. Paper presented at: Gastrointestinal Cancers Symposium; Jan. 22-24, 2010, 2010; Orlando, Fla.), and the last enrolled patient started at a dose of 225 mg/m^2.
All patients were assessed for safety by history, physical examination, blood chemistries, liver function tests and blood counts, at baseline and prior to each infusion. Amylase and lipase were assessed if there were symptoms of pancreatitis. Adverse events were graded using the NCl common toxicity criteria version 3.0 (NCl. Common terminology criteria for adverse events (CTCAE) version 3.0 Aug. 9, 2006). Slit lamp eye examinations were performed during screening and electrocardiograms were obtained during screening and before and after the first infusion, to evaluate for keratitis and QTc prolongation, respectively. Radiographic evaluation of tumor response by CT-scan was performed after every 2 cycles. All films were reviewed and independently assessed by a central radiology core laboratory. […]

[2] = system: MAPK pathway (p-bRAF, p-MEK), cleaved caspase 3 in Colo320HSR xenograft; experiment: Pharmacodynamic analysis after a single dose, wild-type xenograft; assay type: in vivo; conditions: single 100 mpk dose of IPI-493, Colo320HSR; 100 mg/kg
Method: To further investigate a potential correlation between the effect of IPI-493 on molecular components of the RAS-RAF-ERK pathway and efficacy, pharmacodynamic analysis was performed on mutant bRAF (Colo205, Colo201) and wild-type (Colo320HSR) xenograft models after a single 100 mpk dose. […] Moreover, when p-MEK activity was assessed for all the CRC xengrafts, there was a clear delineation of sensitivity between mutant and wild type models, further supporting the hypothesis that MAPK pathway activity can be a surrogate for IPI-493 efficacy. […] Altogether, these provide rationale for a clinical path in this disease.

[3] = system: Colo320HSR, NCI-H716, SNU-C1, C2BBe1 xenografts; experiment: Colorectal xenografts wild type for both KRAS and BRAF; assay type: in vivo, Nu/Nu mice; conditions: 100 mg/kg three times weekly, oral
Method: Preparation of a suspension of this solid amorphous dispersion was made by levigating the solid with glycerol with a spatula followed by homogenization in a 1% hydroxyethylcellulose solution in a high speed homogenizer for 10 minutes to provide in vehicle (1% hydroxyethylcellulose, 5% glycerol). The suspension was used to administer 17-AG in the below described in vivo experiments.
In the third set of studies, the Colo320HSR (FIG. 22A), NC1—H716 (FIG. 22B), SNU-C1 (FIG. 22C) and C2BBe1 (FIG. 22D) cell lines were employed all of which are wild type for both KRAS and BRAF. 5-6 week old Nu/Nu mice were implanted subcutaneously with 10×10^6 cells for each cell line used and dosing by oral gavage commenced after tumors had reached approximately 150-200 mm^3 on a dosing schedule of three times weekly (M, W, F) with a suspension of 50% 17-AG in HPMC-AS-HG dispersion in vehicle (1% hydroxyethylcellulose, 5% glycerol) at a dose level of 100 mg/kg 17-AG (IPI-493) as compared to vehicle control.

## C=CCNc1c(O)cc2c(O)c1C[C@@H](C)C[C@H](OC)[C@H](O)[C@@H](C)/C=C(\C)[C@H](OC(N)=O)[C@@H](OC)/C=C\C=C(/C)C(=O)N2 [IPI-504, retaspimycin hydrochloride]
293FT^ALK tumors
  tumor growth, EML4-ALK containing 293FT tumors: significant growth inhibition
[1]; 3 patients with ALK rearrangements
  time on IPI-504 without progression or death: approximately 7 months
[1]; ALK No Rearrangement Detected
  RECIST Stable Disease or better for at least 3 months: 3 (25) n [%]
[1]; ALK No Rearrangement Detected, 12 patients
  Objective Response Rate (All PRs): 1 (8) n [%]
[1]; ALK No Rearrangement Detected, no unit in table
  Median PFS: 2.43
[1]; ALK Rearrangement Detected
  RECIST Stable Disease or better for at least 3 months: 3 (100) n [%]
[1]; ALK Rearrangement Detected, 3 patients
  Objective Response Rate (All PRs): 2 (67) n [%]
[1]; EGFR Mutant
  RECIST Stable Disease or better for at least 3 months: 6 (21) n [%]
[1]; EGFR Mutant, 28 patients
  Objective Response Rate (All PRs): 1 (4) n [%]
[1]; EGFR Mutant, no unit in table
  Median PFS: 2.76
[1]; EGFR Wild Type
  RECIST Stable Disease or better for at least 3 months: 10 (25) n [%]
[1]; EGFR Wild Type, 40 patients
  Objective Response Rate (All PRs): 4 (10) n [%]
[1]; EGFR Wild Type, no unit in table
  Median PFS: 2.86
[1]; EGFR wild-type patients
  response rate: 10%
[1]; KRAS Mutant
  RECIST Stable Disease or better for at least 3 months: 5 (42) n [%]
[1]; KRAS Mutant, 12 patients
  Objective Response Rate (All PRs): 0 (0) n [%]
[1]; KRAS Mutant, no unit in table
  Median PFS: 3.91
[1]; KRAS Wild Type
  RECIST Stable Disease or better for at least 3 months: 4 (15) n [%]
[1]; KRAS Wild Type, 26 patients
  Objective Response Rate (All PRs): 3 (12)* n [%]
[1]; KRAS Wild Type, no unit in table
  Median PFS: 2.86
[1]; KRAS wild-type patients
  response rate: 12%
[1]; Total, 76 patients
  Objective Response Rate (All PRs): 5 (7) n [%]
  RECIST Stable Disease or better for at least 3 months: 18 (24) n [%]
[1]; Total, no unit in table, months
  Median PFS: 2.86
[1]; all patients
  Median PFS: 2.86 months
[1]; of the 3 patients with an ALK gene rearrangement
  patients with partial response: 2 patients
[1]; overall study population
  overall response rate: 7%
[1]; patients with EGFR mutations
  response rate: 4%
[1]; patients with an ALK rearrangement
  response rate: 67%
[1]; third patient with ALK rearrangement (stable disease)
  reduction in tumor size: 24%

## CO[C@H]1/C=C\C=C(/C)C(=O)NC2=CC(=O)C(N)=C(C[C@@H](C)C[C@H](OC)[C@H](O)[C@@H](C)/C=C(\C)[C@@H]1OC(N)=O)C2=O [IPI-493, 17-AG]
[2]
  p-bRAF, p-MEK, cleaved caspase 3 in wild type model: little effect of IPI-493 administration; also recorded: Minimal changes
[3]
  effect on tumor growth in wild-type kRAS/bRAF models: no detactable effect on TGI; also recorded: did not lead to tumor growth inhibition
[3]; listed as 17-AG
  effect on tumor growth in wild-type kRAS/bRAF models: no detectable difference in tumor volume
